According to patent publication US9801901B2, “Alginate oligomers for use in overcoming multidrug resistance in bacteria” (priority 2009, dated 2017):
In brackets after ≈: the same amount, converted by molar mass. Read-outs that look alike come from different tables or passages of the source.

Assays:
[1] = test system: Burkholderia cepacia (LMG18941, ATCC-BAA-246); experiment: MIC-assay, Mueller-Hinton broth with G-block alginate, 384-well, OD600
[2] = test system: Acinetobacter baumannii (Egypt, V9); experiment: as above
[3] = test system: Pseudomonas aeruginosa (R22, PSA, V1); experiment: as above
Streptococcus oralis = experiment: MIC-assay, Mueller-Hinton broth with G-block alginate, 384-well, OD600 (Table 12); format: cell-based; conditions: Streptococcus oralis (5610, V17) MDR, read-out: MIC
Description: (§1) Minimum inhibitory concentration (MICs) of different antibiotics for strains of Streptococcus oralis and Staphylococcus aureus (MRSA) displaying MDR phenotypes in the presence of varying concentrations of OligoCF-5/20 (0-10%). (MIC values are expressed in μg ml^−1).

[4] = test system: Staphylococcus aureus (MRSA) U50; experiment: as above; format: cell-based; conditions: MRSA 1040s, U50 MDR, read-out: MIC
Description: as §1

[5] = test system: Acinetobacter lwoffii (Egypt, V10); experiment: MIC-assay, Mueller-Hinton broth with G-block alginate, 384-well, OD600
[6] = ATCCBAA246|LMG18941, Table 8, G-block (OligoCF-5/20) 0%
[7] = ATCCBAA246|LMG18941, Table 8, G-block (OligoCF-5/20) 2%
[8] = ATCCBAA246|LMG18941, Table 8, G-block (OligoCF-5/20) 6%
[9] = ATCCBAA246|LMG18941, Table 8, G-block (OligoCF-5/20) 10%
[10] = Table 9, G-block (OligoCF-5/20) 0%
[11] = Table 9, G-block (OligoCF-5/20) 2%
[12] = Table 9, G-block (OligoCF-5/20) 6%
[13] = Table 9, G-block (OligoCF-5/20) 10%
[14] = Table 8, G-block (OligoCF-5/20) 0%
[15] = Table 8, G-block (OligoCF-5/20) 2%
[16] = Table 8, G-block (OligoCF-5/20) 6%
[17] = Table 8, G-block (OligoCF-5/20) 10%

Structure (SMILES)	MIC [1, 6] [µg/mL]	MIC [1, 7] [µg/mL]	MIC [1, 8] [µg/mL]	MIC [1, 9] [µg/mL]	MIC [2, 10] [µg/mL]	MIC [2, 11] [µg/mL]	MIC [2, 12] [µg/mL]	MIC [2, 13] [µg/mL]	MIC [3, 14] [µg/mL]	MIC [3, 15] [µg/mL]	MIC [3, 16] [µg/mL]	MIC [3, 17] [µg/mL]	MIC (Streptococcus oralis; G-block (OligoCF-5/20) 0%) [µg/mL]	MIC (Streptococcus oralis; G-block (OligoCF-5/20) 2%) [µg/mL]	MIC (Streptococcus oralis; G-block (OligoCF-5/20) 6%) [µg/mL]	MIC (Streptococcus oralis; G-block (OligoCF-5/20) 10%) [µg/mL]	MIC ([4]; G-block (OligoCF-5/20) 0%) [µg/mL]	MIC ([4]; G-block (OligoCF-5/20) 2%) [µg/mL]	MIC ([4]; G-block (OligoCF-5/20) 6%) [µg/mL]	MIC ([4]; G-block (OligoCF-5/20) 10%) [µg/mL]	other results
C[C@@H](O)[C@H]1C(=O)N2C(C(=O)O)=C(SCCN=CN)C[C@H]12 [Imipenem]	> 16	> 16	> 16	> 16	2 (≈ 6.68 µM)	< 2	2 (≈ 6.68 µM)	< 2	128 (≈ 428 µM)	128 (≈ 428 µM)	64 (≈ 214 µM)	16 (≈ 53.4 µM)	< 0.0312	16 (≈ 53.4 µM)	1 (≈ 3.34 µM)	< 0.0312	0.0625 (≈ 0.209 µM)	0.0625 (≈ 0.209 µM)	0.0312 (≈ 0.104 µM)	< 0.0312	MIC [5, 10]: < 2 µg/mL; MIC [5, 11]: < 2 µg/mL; MIC [5, 12]: < 2 µg/mL; MIC [5, 13]: < 2 µg/mL
CC[C@H]1OC(=O)[C@H](C)[C@@H](O[C@H]2C[C@@](C)(OC)[C@@H](O)[C@H](C)O2)[C@H](C)[C@@H](O[C@@H]2O[C@H](C)C[C@H](N(C)C)[C@H]2O)[C@](C)(O)C[C@@H](C)[C@@H]2N[C@@H](COCCOC)O[C@H]([C@H]2C)[C@]1(C)O [Dirithromycin]	512 (≈ 613 µM)	256 (≈ 307 µM)	256 (≈ 307 µM)	256 (≈ 307 µM)	4 (≈ 4.79 µM)	< 1	< 1	< 1	> 512	> 512	512 (≈ 613 µM)	256 (≈ 307 µM)	4 (≈ 4.79 µM)	4 (≈ 4.79 µM)	< 0.0312	0.0312 (≈ 0.0374 µM)	1020 (≈ 1230 µM)	512 (≈ 613 µM)	512 (≈ 613 µM)	256 (≈ 307 µM)	MIC [5, 10]: < 1 µg/mL; MIC [5, 11]: < 1 µg/mL; MIC [5, 12]: < 1 µg/mL; MIC [5, 13]: < 1 µg/mL
